Data: EP4772500A1, “NOVEL ISOXAZOLE COMPOUND AS TM4SF5-SPECIFIC INHIBITOR AND USE THEREOF” (Seoul National University R&DB Foundation, priority 2023, dated 2025)

Experiments:
TM4SF5 = target: T1, TM4SF5 (Homo sapiens, UniProt O14894); test: TM4SF5 expression-dependent animal models (summary statement); type: in vivo; parameters: expressed in transfected cells; captured on streptavidin agarose
T1 sequence (O14894 1-197): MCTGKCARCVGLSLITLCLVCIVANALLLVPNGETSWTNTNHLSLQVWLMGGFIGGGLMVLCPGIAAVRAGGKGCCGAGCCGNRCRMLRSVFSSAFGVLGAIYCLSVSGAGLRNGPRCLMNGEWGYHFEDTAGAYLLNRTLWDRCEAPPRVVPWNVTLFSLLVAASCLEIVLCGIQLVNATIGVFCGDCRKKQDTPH
Text: In addition, the isoxazole compounds are capable of reversing both (i) an increase in PD-L1 expression and stabilization through direct binding mediated by TM4SF5 and (ii) induction of PD-1 expression in T cells, which suppresses T-cell activation and cancer cell killing functions.

[1] = system: SNU761 cells expressing HA-TM4SF5 and FLAG-SLAMF7; test: Immunofluorescence microscopy of SLAMF7 localization (Pearson's correlation); type: cell-based, human; conditions: 2.5 µM, 24 h, vs DMSO (FIG. 15g-h)
Experimental: After putting a cover glass into each well of a 12-well plate, 10 µg/ml fibronectin (35600, BD Biosciences) diluted in PBS was added thereto and left at room temperature for 1 hour for coating. After washing three times with PBS, 20,000 cells were seeded on each cover glass and cultured in a cell incubator at 37°C for 16 hours. After cultivation, the various expression vectors mentioned above were transfected using Lipofectamine 3000 (L3000015, Invitrogen) and cultured for 24 hours, and then isoxazole was treated or not treated for 24 hours. The cells were fixed with cold 99% methanol at room temperature for 15 minutes and then blocked with 1% BSA in PBS for 1 hour. Primary antibodies, anti-FLAG (NB600-344, Novus Biologicals), anti-LAMP1 (#9091, Cell Signaling Tech,), anti-ZO-1 (402200, Invitrogen), anti-HA (901515, BioLegend), and anti-SLAMF7 (sc-390840, Santa Cruz Biotech.), were diluted in 1% BSA in PBS at a ratio of 1:500 and reacted at 4°C for 16 hours. The next day, the cover glasses were washed three times with PBS, and then fluorescence-conjugated secondary antibodies (Alexa Fluor 488 [goat: A11055 and mouse: A21202] and 555 [goat: A21432 and mouse: A31570] from Invitrogen) were diluted in 1% BSA in PBS at a ratio of 1:500 and reacted at room temperature for 1 hour. After washing three times with PBS, mounting was performed using ProLong™ Gold Antifade (P36930, Invitrogen). Cells were randomly photographed using a Nikon Eclipse Ti microscope with a C2 confocal system, and then the images were analyzed using NIS-Elements software (Nikon, Melville, NY, USA), and colocalization of SLAMF7 with LAMP1 or ZO-1 was calculated using Pearson's correlation coefficients. All images were photographed under the same software settings and equally corrected with Adobe Photoshop. Each dot in the graphs represents a result measured from a single cell.
SNU449-TM4SF5 cells overexpressing TM4SF5 were seeded on cover glasses pre-coated with collagen Type I (10 µg/ml), and 15 hour later, PD-L1-HA cDNA was transfected using Lipofectamine 3000 (Thermo Fisher). […] After reacting again with secondary antibodies at room temperature for 30 minutes (TRITC fluorescence for LAMP1, TRITC or Alexa Fluor® 488 fluorescence for TM4SF5, and FITC fluorescence for PD-L1 or SLAMF7), the expression levels, localizations, and colocalizations (indicated in yellow) of the fluorescently-stained factors were observed using a confocal fluorescence microscope.
(a) SNU761 cells expressing HA-EV or HA-TM4SF5 and FLAG-SLAMF7 were stored at 4°C and then cultured at 37°C for the given periods. […] The colocalization coefficient was calculated by Pearson's correlation (b). […]

SMILES: Cc1ccc(C(=O)Nc2ccc(-c3cc(-c4ccc(O)cc4)no3)cc2)cc1 [ST-5-002, N-(4-(3-(4-hydroxyphenyl)isoxazole-5-yl)phenyl)-4-methylbenzamide]
- doses at which effects were exhibited (TM4SF5): ≤ 2.5 mpk
- SLAMF7 colocalized at the lysosomal membrane [1]: decreased
- SLAMF7 expression/localization at the plasma membrane (PM) [1]: rather increased

SMILES: CC(=O)Nc1ccc(-c2cc(-c3ccc(O)cc3)no2)cc1 [ST-5-001, N-(4-(3-(4-hydroxyphenyl)isoxazole-5-yl)phenyl)acetamide]
- doses at which effects were exhibited (TM4SF5): ≤ 2.5 mpk
- SLAMF7 colocalized at the lysosomal membrane [1]: decreased
- SLAMF7 expression/localization at the plasma membrane (PM) [1]: rather increased
